Patent US20180243421A1, “IMMUNOSTIMULATING AGENT” (AJINOMOTO CO., INC., priority 2015, published 2018)

Experiments:
Format in all cases: in vivo, BALB/c mice
[1] = test system: anti-OVA-specific IgG1 subclass antibody; assay: Adjuvant activity: anti-OVA-specific IgG1 subclass antibody in serum after secondary immunization (Examples 12, 19, 20, 21); details: Example 21; s.c.; SZ62 0.256 μmol in 5% αCD saline, CpG 5 μg, MPL 5 μg, Addavax 1:1, Alum; two weeks from secondary immunization
[2] = test system: anti-OVA-specific IgG2a subclass antibody; assay: Adjuvant activity: anti-OVA-specific IgG2a subclass antibody in serum after secondary immunization
Description: Two weeks from the secondary immunization, the whole blood was extracted under anesthesia, and the obtained serum sample was measured for anti-OVA-specific IgG1 subclass antibody.
Measurement Method of anti-OVA-specific IgG2a Subclass Antibody
To a 96 well plate was added 5 μg/ml OVA at 100 μl/well, and the mixture was incubated at 4° C. overnight. After incubation, the mixture was washed three times with 200 μl of PBS-T (PBS+0.05%(v/v) Tween 20) per well, and blocked with 100 μl of 5% FCS/PBS solution per well at room temperature for 1 to 2 hr. Thereafter, the mixture was washed three times with PBS-T (200 μl/well), a diluted serum sample (100 μl/well) or the same amount of 5% FCS/PBS solution as a control was added, and the mixture was incubated at 37° C. for 1 hr. Thereafter, the mixture was washed five times with PBS-T (200 μl/well), a diluted biotinylated anti-mouse IgG2a antibody (100 μl/well) was added, and the mixture was incubated at 37° C. for 45 min. Thereafter, the mixture was washed five times with PBS-T (200 μl/well), a diluted anti-biotin-HRP antibody was added (100 μl/well), and the mixture was incubated at 37° C. for another 30 min. Thereafter, the mixture was washed five times with PBS-T (200 μl/well), TMB substrate solution was added (100 μl/well), and the mixture was incubated at room temperature for 10-15 min. Thereafter, a reaction quenching liquid (2N sulfuric acid solution) was added (50 μl/well) to discontinue a color developing reaction, and the absorbance (OD Value=450 nm) was measured by a microplate reader.
Measurement Method of Concentration of anti-OVA-specific IgG1 Subclass Antibody and anti-OVA-specific IgG2a Subclass Antibody
To a 96 well plate was added 5 μg/ml OVA at 100 μl/well, and the mixture was incubated at 4° C. overnight. After incubation, the mixture was washed three times with 200 μl of PBS-T (PBS+0.05% (v/v) Tween 20) per well, and blocked with 100 μl of 5% FCS/PBS solution per well at room temperature for 1 to for 2 hr. […] When an anti-OVA-specific IgG2a subclass antibody was measured, the standard of an anti-OVA-specific IgG2a subclass antibody was added at 50 ng/ml, 25 ng/ml, 12,5 ng/ml, 6.25 ng/ml, 3.125 ng/ml, 1.56 ng/ml, 0.781 ng/ml, 0.391 ng/ml, 0.195 ng/ml, 0.098 ng/ml, 0.049 ng/ml, 0 ng/ml, per 1 well. […] Thereafter, a reaction quenching liquid (2N sulfuric acid solution) was added (50 μl/well) to discontinue a color developing reaction, and the absorbance (OD Value=450 nm) was measured by a microplate reader. A standard curve was drawn from the measured OD values, and the concentration was calculated.

[3] = test system: anti-OVA-specific IgG1 subclass antibody; assay: Adjuvant activity: anti-OVA-specific IgG1 subclass antibody in serum after secondary immunization (Examples 1, 5, 7, 8; ELISA absorbance)
Method in brief: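 Serum was taken two weeks after the secondary immunization and assayed by ELISA on plates coated with 5 μg/ml OVA. Detection used biotinylated anti-mouse IgG1, then anti-biotin-HRP and TMB. The reaction was stopped with 2N H2SO4 and read as absorbance at 450 nm.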

[4] = Example 2, serum sample of Example 1

Compound: CCCCCCCCCCCCCCCC(=O)NC(=N)NCCCCN [SZ62, N-hexadecanoylagmatine]
- anti-OVA-specific IgG1 subclass antibody production as compared to the OVA single administration group [1]: tended to increase
- adjuvant activity (IgG2a) compared with Alum [2, 4]: equivalent to that of Alum
- anti-OVA-specific IgG2a subclass antibody production as compared to the OVA single administration group [2, 4]: significantly increased
- anti-OVA-specific IgG2a subclass antibody production as compared to the OVA single administration group ([2]; Example 21, s.c., SZ62 0.256 μmol in 5% αCD saline, CpG 5 μg, MPL 5 μg, Addavax 1:1, Alum, two weeks from secondary immunization): tended to increase
- anti-OVA-specific IgG1 subclass antibody production as compared to the OVA single administration group ([3]; Example 1, dorsal-subcutaneous, OVA 10 μg, SZ62 0.256 μmol in 5% αCD saline, Alum 2.56 μmol, serum two weeks from secondary immunization): significantly increased
- adjuvant activity (IgG1) compared with Alum ([3]; Example 1, same test as E1): equivalent to that of Alum
- adjuvant activity (IgG1) compared with Alum ([3]; Example 5): equivalent to or not less than that of Alum
- anti-OVA-specific IgG1 subclass antibody production as compared to the OVA single administration group ([3]; Example 5, same manner as Example 1): significantly increased
- adjuvant activity (IgG1) compared with Alum ([3]; Example 8): equivalent to or not less than that of Alum
- anti-OVA-specific IgG1 subclass antibody production as compared to the OVA single administration group ([3]; Example 8, same manner as Example 7): significantly increased
